Literature values, collected in article PMC3462432 (FEBS letters, 2012).

Row | Substance | in vitro activity against mouse leukemia cells (mouse leukemia cells) | activity against B. anthracis (B. anthracis)
1 | cypemycin | potent in vitro activity | 
2 | plantazolicin B |  | devoid of activity
3 | plantazolicin A |  | potent activity
